{"source": "paper PMC10211317", "about": "“Identification of ARUK2002821 as an isoform-selective PI5P4Kα inhibitor” (RSC Medicinal Chemistry, 2023)", "experiment_in_all_cases": "Premier Screen kinase panel (MRC PPU)", "type_in_all_cases": "biochemical", "key": {"[1]": {"target": "PRAK (Homo sapiens, UniProt Q8IW41)", "conditions": "PRAK (Entrez MAPKAPK5), read-out: Residual activity (%)", "experimental": "(§1) room temperature with shaking for 30 minutes. The kinase concentration in the eluates was measured by qPCR.\n(§2) using ADP-GloTM assay at the MRC PPU International Centre for Kinase Profiling, University of Dundee.\n(§3) Conducted by MRC PPU International Centre\n(§4) Conducted by MRC PPU International Centre for […]"}, "[2]": {"target": "IRR (Homo sapiens, UniProt P14616)", "conditions": "IRR (Entrez INSRR), read-out: Residual activity (%)", "experimental": "as §1, §2, §3, §4"}, "[3]": {"target": "ERK8 (Homo sapiens, UniProt Q8TD08)", "conditions": "ERK8 (Entrez MAPK15), read-out: Residual activity (%)", "experimental": "as §1, §2, §3, §4"}, "[4]": {"target": "ERK2 (Homo sapiens, UniProt P28482)", "sequence (P28482 whole entry)": "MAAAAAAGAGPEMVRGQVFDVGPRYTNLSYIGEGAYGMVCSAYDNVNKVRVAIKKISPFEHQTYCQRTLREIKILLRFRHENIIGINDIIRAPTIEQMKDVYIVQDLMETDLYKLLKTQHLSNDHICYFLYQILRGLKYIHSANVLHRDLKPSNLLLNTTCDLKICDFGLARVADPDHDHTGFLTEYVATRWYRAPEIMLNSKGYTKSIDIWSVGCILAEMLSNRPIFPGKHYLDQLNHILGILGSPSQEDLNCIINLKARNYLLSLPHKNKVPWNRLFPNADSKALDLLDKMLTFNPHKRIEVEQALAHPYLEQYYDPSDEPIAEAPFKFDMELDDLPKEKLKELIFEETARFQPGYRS", "conditions": "ERK2 (Entrez MAPK1), read-out: Residual activity (%)", "experimental": "as §1, §2, §3, §4"}, "[5]": {"target": "PAK4 (Homo sapiens, UniProt O96013)", "conditions": "PAK4 (Entrez PAK4), read-out: Residual activity (%)", "experimental": "as §1, §2, §3, §4"}, "[6]": {"target": "MAP4K3 (Homo sapiens, UniProt Q8IVH8)", "conditions": "MAP4K3 (Entrez MAP4K3), read-out: Residual activity (%)", "experimental": "as §1, §2, §3, §4"}, "[7]": {"target": "MLK1 (Homo sapiens, UniProt P80192)", "conditions": "MLK1 (Entrez MAP3K9), read-out: Residual activity (%)", "experimental": "as §1, §2, §3, §4"}, "[8]": {"target": "VEG-FR (Homo sapiens, UniProt P17948)", "conditions": "VEG-FR (Entrez FLT1), read-out: Residual activity (%)", "experimental": "as §1, §2, §3, §4"}, "[9]": {"target": "MELK (Homo sapiens, UniProt Q14680)", "conditions": "MELK (Entrez MELK), read-out: Residual activity (%)", "experimental": "as §1, §2, §3, §4"}, "[10]": {"target": "SIK3 (Homo sapiens, UniProt Q9Y2K2)", "sequence (Q9Y2K2 whole entry)": "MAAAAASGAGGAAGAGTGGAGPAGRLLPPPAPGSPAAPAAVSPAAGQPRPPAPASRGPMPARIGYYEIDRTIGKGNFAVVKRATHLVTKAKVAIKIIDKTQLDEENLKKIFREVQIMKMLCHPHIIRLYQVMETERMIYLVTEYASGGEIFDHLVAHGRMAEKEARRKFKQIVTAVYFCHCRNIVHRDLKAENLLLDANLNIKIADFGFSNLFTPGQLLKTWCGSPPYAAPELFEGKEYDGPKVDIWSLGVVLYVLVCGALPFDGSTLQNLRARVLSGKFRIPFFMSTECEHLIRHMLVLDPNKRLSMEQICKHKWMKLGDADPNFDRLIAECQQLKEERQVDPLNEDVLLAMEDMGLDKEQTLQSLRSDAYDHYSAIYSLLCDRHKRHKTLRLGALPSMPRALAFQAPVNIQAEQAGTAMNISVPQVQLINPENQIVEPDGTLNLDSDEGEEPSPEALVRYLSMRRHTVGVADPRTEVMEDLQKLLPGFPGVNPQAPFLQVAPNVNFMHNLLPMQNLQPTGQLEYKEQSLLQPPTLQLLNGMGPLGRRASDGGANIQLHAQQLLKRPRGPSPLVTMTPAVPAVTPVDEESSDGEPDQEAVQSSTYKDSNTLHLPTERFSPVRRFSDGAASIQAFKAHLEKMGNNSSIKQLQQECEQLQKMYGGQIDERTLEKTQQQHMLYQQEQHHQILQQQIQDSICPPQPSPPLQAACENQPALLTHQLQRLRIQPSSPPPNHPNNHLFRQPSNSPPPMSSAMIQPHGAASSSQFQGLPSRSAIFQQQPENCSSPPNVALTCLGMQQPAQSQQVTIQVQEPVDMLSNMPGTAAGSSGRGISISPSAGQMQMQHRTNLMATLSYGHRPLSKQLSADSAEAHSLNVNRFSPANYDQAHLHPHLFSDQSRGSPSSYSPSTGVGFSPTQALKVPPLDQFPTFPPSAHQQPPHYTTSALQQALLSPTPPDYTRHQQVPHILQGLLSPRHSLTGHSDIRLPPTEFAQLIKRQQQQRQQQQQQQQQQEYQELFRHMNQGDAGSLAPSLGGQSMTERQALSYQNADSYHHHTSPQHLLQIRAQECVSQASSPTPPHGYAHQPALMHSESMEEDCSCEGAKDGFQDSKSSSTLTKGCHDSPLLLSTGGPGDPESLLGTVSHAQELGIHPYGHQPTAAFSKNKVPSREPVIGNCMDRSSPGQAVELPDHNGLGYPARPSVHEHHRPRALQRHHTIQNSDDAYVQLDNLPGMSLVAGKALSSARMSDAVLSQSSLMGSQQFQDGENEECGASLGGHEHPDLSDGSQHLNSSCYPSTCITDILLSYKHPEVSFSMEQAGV", "conditions": "SIK3 (Entrez SIK3), read-out: Residual activity (%)", "experimental": "as §1, §2, §3, §4"}, "[11]": {"target": "p38a MAPK (Homo sapiens, UniProt Q16539)", "conditions": "p38a MAPK (Entrez MAPK14), read-out: Residual activity (%)", "experimental": "as §1, §2, §3, §4"}, "[12]": {"target": "Aurora A (Homo sapiens, UniProt O14965)", "conditions": "Aurora A (Entrez AURKA), read-out: Residual activity (%)", "experimental": "as §1, §2, §3, §4"}, "[13]": {"target": "CAMK1 (Homo sapiens, UniProt Q14012)", "conditions": "CAMK1 (Entrez CAMK1), read-out: Residual activity (%)", "experimental": "as §1, §2, §3, §4"}, "[14]": {"target": "MAPKAP-K3 (Homo sapiens, UniProt Q16644)", "conditions": "MAPKAP-K3 (Entrez MAPKAPK3), read-out: Residual activity (%)", "experimental": "as §1, §2, §3, §4"}, "[15]": {"target": "MARK3 (Homo sapiens, UniProt P27448)", "conditions": "MARK3 (Entrez MARK3), read-out: Residual activity (%)", "experimental": "as §1, §2, §3, §4"}, "[16]": {"target": "MNK1 (Homo sapiens, UniProt Q9BUB5)", "conditions": "MNK1 (Entrez MKNK1), read-out: Residual activity (%)", "experimental": "as §1, §2, §3, §4"}, "[17]": {"target": "PLK1 (Homo sapiens, UniProt P53350)", "conditions": "PLK1 (Entrez PLK1), read-out: Residual activity (%)", "experimental": "as §1, §2, §3, §4"}, "[18]": {"target": "IGF-1R (Homo sapiens, UniProt P08069)", "conditions": "IGF-1R (Entrez IGF1R), read-out: Residual activity (%)", "experimental": "as §1, §2, §3, §4"}, "[19]": {"target": "WNK1 (Homo sapiens, UniProt Q9H4A3)", "conditions": "WNK1 (Entrez WNK1), read-out: Residual activity (%)", "experimental": "as §1, §2, §3, §4"}, "[20]": {"target": "NUAK1 (Homo sapiens, UniProt O60285)", "sequence (O60285 whole entry, species assumed)": "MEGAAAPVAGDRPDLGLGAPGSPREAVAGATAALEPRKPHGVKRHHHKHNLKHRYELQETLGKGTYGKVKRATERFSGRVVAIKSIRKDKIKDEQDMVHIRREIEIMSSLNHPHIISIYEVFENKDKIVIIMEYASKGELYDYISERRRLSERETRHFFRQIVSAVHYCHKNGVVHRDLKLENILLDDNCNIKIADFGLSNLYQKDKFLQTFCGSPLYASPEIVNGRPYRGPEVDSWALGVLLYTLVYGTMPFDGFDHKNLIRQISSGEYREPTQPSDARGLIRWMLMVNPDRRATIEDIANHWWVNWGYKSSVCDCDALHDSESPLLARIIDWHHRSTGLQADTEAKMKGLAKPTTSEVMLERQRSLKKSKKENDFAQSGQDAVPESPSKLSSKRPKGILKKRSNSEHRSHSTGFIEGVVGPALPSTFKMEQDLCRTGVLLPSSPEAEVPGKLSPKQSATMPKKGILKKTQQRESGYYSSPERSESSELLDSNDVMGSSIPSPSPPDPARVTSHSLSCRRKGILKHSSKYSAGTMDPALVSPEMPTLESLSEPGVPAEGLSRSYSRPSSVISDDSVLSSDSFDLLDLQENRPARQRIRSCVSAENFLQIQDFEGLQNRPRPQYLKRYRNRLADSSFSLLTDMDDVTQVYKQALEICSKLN", "conditions": "NUAK1 (Entrez NUAK1), read-out: Residual activity (%)", "experimental": "as §1, §2, §3, §4"}, "[21]": {"target": "JNK2 (Homo sapiens, UniProt P45984)", "sequence (P45984 whole entry)": "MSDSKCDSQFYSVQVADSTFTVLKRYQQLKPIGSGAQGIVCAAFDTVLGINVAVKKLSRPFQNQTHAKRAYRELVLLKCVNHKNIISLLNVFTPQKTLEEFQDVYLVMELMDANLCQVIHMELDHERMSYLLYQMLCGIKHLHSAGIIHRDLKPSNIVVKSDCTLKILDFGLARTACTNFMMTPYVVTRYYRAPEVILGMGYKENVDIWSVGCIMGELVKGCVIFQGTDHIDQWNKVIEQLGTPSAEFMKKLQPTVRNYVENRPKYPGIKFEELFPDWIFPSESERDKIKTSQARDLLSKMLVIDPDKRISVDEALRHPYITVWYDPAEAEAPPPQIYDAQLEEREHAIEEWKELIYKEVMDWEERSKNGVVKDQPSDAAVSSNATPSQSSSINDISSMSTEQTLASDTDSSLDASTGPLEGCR", "conditions": "JNK2 (Entrez MAPK9), read-out: Residual activity (%)", "experimental": "as §1, §2, §3, §4"}, "[22]": {"target": "SRPK1 (Homo sapiens, UniProt Q96SB4)", "conditions": "SRPK1 (Entrez SRPK1), read-out: Residual activity (%)", "experimental": "as §1, §2, §3, §4"}, "[23]": {"target": "SYK (Homo sapiens, UniProt P43405)", "conditions": "SYK (Entrez SYK), read-out: Residual activity (%)", "experimental": "as §1, §2, §3, §4"}, "[24]": {"target": "MINK1 (Homo sapiens, UniProt Q8N4C8)", "sequence (Q8N4C8 whole entry)": "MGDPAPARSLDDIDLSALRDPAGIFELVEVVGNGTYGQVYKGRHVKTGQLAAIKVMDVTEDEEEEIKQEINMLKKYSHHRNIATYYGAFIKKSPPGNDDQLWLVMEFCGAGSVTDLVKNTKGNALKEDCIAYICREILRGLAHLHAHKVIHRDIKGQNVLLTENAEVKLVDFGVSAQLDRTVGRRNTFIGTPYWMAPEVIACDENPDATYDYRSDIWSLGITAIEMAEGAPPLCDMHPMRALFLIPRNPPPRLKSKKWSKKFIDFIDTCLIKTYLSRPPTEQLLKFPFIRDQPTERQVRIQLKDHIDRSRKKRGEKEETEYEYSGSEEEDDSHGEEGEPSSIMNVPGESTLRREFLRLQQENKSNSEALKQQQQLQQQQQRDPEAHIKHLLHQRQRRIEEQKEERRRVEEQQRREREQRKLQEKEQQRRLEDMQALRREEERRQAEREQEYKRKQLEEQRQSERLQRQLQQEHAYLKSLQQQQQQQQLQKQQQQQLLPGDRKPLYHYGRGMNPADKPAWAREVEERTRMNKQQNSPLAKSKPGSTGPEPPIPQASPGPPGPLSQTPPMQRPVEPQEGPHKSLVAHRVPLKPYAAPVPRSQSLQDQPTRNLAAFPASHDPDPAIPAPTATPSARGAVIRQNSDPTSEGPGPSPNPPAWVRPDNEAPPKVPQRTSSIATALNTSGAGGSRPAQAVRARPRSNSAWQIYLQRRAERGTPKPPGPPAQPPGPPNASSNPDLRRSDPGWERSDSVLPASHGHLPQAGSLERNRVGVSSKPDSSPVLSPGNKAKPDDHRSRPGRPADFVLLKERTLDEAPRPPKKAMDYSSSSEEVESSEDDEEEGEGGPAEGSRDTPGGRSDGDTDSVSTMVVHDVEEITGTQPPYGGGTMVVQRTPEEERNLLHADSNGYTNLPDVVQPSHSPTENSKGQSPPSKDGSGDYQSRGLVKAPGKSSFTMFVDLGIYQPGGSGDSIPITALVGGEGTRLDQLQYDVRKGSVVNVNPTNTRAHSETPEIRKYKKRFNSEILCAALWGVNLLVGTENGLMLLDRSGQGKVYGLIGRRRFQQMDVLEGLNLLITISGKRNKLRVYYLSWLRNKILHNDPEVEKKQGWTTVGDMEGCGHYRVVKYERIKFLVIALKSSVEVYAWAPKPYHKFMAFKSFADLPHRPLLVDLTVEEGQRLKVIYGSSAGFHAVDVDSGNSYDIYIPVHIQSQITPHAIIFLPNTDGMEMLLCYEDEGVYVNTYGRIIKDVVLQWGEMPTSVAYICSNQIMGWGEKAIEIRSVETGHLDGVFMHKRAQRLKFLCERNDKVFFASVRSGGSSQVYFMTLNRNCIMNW", "conditions": "MINK1 (Entrez MINK1), read-out: Residual activity (%)", "experimental": "as §1, §2, §3, §4"}, "[25]": {"target": "PRK2 (Homo sapiens, UniProt Q16513)", "sequence (Q16513 whole entry)": "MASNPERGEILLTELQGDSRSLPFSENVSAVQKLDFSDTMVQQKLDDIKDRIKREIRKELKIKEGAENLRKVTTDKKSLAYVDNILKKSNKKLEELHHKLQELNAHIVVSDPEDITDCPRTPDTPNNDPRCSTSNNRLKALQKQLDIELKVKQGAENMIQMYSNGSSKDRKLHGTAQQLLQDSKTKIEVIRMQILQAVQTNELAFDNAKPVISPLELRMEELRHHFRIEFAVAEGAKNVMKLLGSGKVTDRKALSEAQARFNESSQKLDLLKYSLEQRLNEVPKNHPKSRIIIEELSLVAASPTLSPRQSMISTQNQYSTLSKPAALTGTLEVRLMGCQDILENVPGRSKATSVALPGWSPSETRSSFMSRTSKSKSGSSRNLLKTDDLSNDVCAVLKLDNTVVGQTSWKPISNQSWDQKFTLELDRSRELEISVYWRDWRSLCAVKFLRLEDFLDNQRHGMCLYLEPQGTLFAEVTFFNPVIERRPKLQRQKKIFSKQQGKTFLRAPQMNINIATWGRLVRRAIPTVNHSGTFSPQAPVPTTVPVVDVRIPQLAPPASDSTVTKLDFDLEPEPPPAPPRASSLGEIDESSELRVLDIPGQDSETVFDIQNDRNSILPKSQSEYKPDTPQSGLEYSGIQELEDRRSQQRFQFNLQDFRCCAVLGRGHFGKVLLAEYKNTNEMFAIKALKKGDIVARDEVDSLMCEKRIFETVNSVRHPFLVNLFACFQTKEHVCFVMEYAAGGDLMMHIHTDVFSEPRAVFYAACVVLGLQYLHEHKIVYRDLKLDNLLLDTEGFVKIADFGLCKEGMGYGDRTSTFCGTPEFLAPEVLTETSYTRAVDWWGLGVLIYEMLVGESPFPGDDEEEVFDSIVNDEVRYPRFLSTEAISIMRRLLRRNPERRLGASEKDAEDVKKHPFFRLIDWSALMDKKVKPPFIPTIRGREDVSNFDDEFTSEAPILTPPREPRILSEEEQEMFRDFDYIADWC", "conditions": "PRK2 (Entrez PKN2), read-out: Residual activity (%)", "experimental": "as §1, §2, §3, §4"}, "[26]": {"target": "STK33 (Homo sapiens, UniProt Q9BYT3)", "conditions": "STK33 (Entrez STK33), read-out: Residual activity (%)", "experimental": "as §1, §2, §3, §4"}, "[27]": {"target": "S6K1 (Homo sapiens, UniProt P23443)", "conditions": "S6K1 (Entrez RPS6KB1), read-out: Residual activity (%)", "experimental": "as §1, §2, §3, §4"}, "[28]": {"target": "PIM1 (Homo sapiens, UniProt P11309)", "conditions": "PIM1 (Entrez PIM1), read-out: Residual activity (%)", "experimental": "as §1, §2, §3, §4"}, "[29]": {"target": "SGK1 (Homo sapiens, UniProt O00141)", "conditions": "SGK1 (Entrez SGK1), read-out: Residual activity (%)", "experimental": "as §1, §2, §3, §4"}, "[30]": {"target": "Src (Homo sapiens, UniProt P12931)", "conditions": "Src (Entrez SRC), read-out: Residual activity (%)", "experimental": "as §1, §2, §3, §4"}, "[31]": {"target": "MSK1 (Homo sapiens, UniProt O75582)", "conditions": "MSK1 (Entrez RPS6KA5), read-out: Residual activity (%)", "experimental": "as §1, §2, §3, §4"}}}
{"compound": "COc1ccc(Nc2ncnc3c2ccn3-c2ccc(C)c(C)c2)cc1Cl", "note": "[compound 36]", "values": [{"measurement": "remaining activity at 1 µM", "setting": "[1]", "result": 90, "unit": "%"}, {"measurement": "remaining activity at 1 µM", "setting": "[2]", "result": 96, "unit": "%"}, {"measurement": "remaining activity at 1 µM", "setting": "[3]", "result": 110, "unit": "%"}, {"measurement": "remaining activity at 1 µM", "setting": "[4]", "result": 110, "unit": "%"}, {"measurement": "remaining activity at 1 µM", "setting": "[5]", "result": 78, "unit": "%"}, {"measurement": "remaining activity at 1 µM", "setting": "[6]", "result": 92, "unit": "%"}, {"measurement": "remaining activity at 1 µM", "setting": "[7]", "result": 70, "unit": "%"}, {"measurement": "remaining activity at 1 µM", "setting": "[8]", "result": 99, "unit": "%"}, {"measurement": "remaining activity at 1 µM", "setting": "[9]", "result": 92, "unit": "%"}, {"measurement": "remaining activity at 1 µM", "setting": "[10]", "result": 123, "unit": "%"}, {"measurement": "remaining activity at 1 µM", "setting": "[11]", "result": 98, "unit": "%"}, {"measurement": "remaining activity at 1 µM", "setting": "[12]", "result": 81, "unit": "%"}, {"measurement": "remaining activity at 1 µM", "setting": "[13]", "result": 99, "unit": "%"}, {"measurement": "remaining activity at 1 µM", "setting": "[14]", "result": 101, "unit": "%"}, {"measurement": "remaining activity at 1 µM", "setting": "[15]", "result": 104, "unit": "%"}, {"measurement": "remaining activity at 1 µM", "setting": "[16]", "result": 87, "unit": "%"}, {"measurement": "remaining activity at 1 µM", "setting": "[17]", "result": 90, "unit": "%"}, {"measurement": "remaining activity at 1 µM", "setting": "[18]", "result": 119, "unit": "%"}, {"measurement": "remaining activity at 1 µM", "setting": "[19]", "result": 105, "unit": "%"}, {"measurement": "remaining activity at 1 µM", "setting": "[20]", "result": 138, "unit": "%"}, {"measurement": "remaining activity at 1 µM", "setting": "[21]", "result": 106, "unit": "%"}, {"measurement": "remaining activity at 1 µM", "setting": "[22]", "result": 99, "unit": "%"}, {"measurement": "remaining activity at 1 µM", "setting": "[23]", "result": 97, "unit": "%"}, {"measurement": "remaining activity at 1 µM", "setting": "[24]", "result": 107, "unit": "%"}, {"measurement": "remaining activity at 1 µM", "setting": "[25]", "result": 86, "unit": "%"}, {"measurement": "remaining activity at 1 µM", "setting": "[26]", "result": 93, "unit": "%"}, {"measurement": "remaining activity at 1 µM", "setting": "[27]", "result": 89, "unit": "%"}, {"measurement": "remaining activity at 1 µM", "setting": "[28]", "result": 75, "unit": "%"}, {"measurement": "remaining activity at 1 µM", "setting": "[29]", "result": 97, "unit": "%"}, {"measurement": "remaining activity at 1 µM", "setting": "[30]", "result": 93, "unit": "%"}, {"measurement": "remaining activity at 1 µM", "setting": "[31]", "result": 103, "unit": "%"}]}
